From patent US20220265612A1, “CARDIAC SARCOMERE INHIBITOR ORAL FORMULATIONS” (Cytokinetics, Inc., priority 2019, published 2022)

Experiments:
[1] = molecular target: T1, bovine cardiac myofibrils (Bos taurus, UniProt Q9BE39); assay: Skinned bovine cardiac myofibril ATPase assay (PK/LDH-coupled); type: biochemical; details: myofibril ATPase at Ca2+ giving 75% activation (pCa75)
T1 construct: full-length cardiac myosin in the context of the native sarcomere; from tissue; host or cells: bovine cardiac left ventricular tissue, detergent-skinned (Triton X-100) myofibrils
Source text: Bovine cardiac myofibrils were obtained by homogenizing bovine cardiac left ventricular tissue in the presence of a detergent such as triton X-100. Such treatment removes membranes and a majority of the soluble cytoplasmic proteins but leaves intact the cardiac sarcomeric acto-myosin apparatus. Myofibril preparations retain the ability to hydrolyze ATP in a Ca^2+ regulated manner. […] This assay regenerates myosin-produced ADP into ATP by oxidizing NADH, producing an absorbance change at 340 nm.

[2] = system: rat cardiac contractility; assay: Echocardiography assessment of cardiac contractility, oral gavage; type: in vivo, Sprague Dawley rats; details: oral dosing, estimated value
Procedure: Assessment of in vivo cardiac function by echocardiography was performed in male Sprague Dawley rats under isoflurane (1-3%) anesthesia. […] In vivo fractional shortening was determined by M-mode image analysis with the following calculation: ((End diastolic diameter−end systolic diameter)/end diastolic diameter×100). […] During infusion, M-mode images were taken at 5 minute intervals. The infusion stopped when fractional shortening reached up to a 60% reduction from baseline. […] Data was reported as an estimated IC50 value, which is the concentration at which fractional shortening is 50% of the pre-dose baseline contractility.
For oral dosing studies, three pre-dose baseline M-Mode images were taken at 1 minute intervals prior to compound administration. […] Rats were lightly anesthetized for M-Mode echocardiography measurements at select time points over a 24 hour period. Different dose levels were evaluated for (R)-N-(5-(5-ethyl-1,2,4-oxadiazol-3-yl)-2,3-dihydro-1H-inden-1-yl)-1-methyl-1H-pyrazole-4-carboxamide. The compound effect on cardiac fractional shortening at the highest dose evaluated is presented in Table D as a percent reduction of baseline fractional shortening (=100%).

T1 sequence (Q9BE39 whole entry): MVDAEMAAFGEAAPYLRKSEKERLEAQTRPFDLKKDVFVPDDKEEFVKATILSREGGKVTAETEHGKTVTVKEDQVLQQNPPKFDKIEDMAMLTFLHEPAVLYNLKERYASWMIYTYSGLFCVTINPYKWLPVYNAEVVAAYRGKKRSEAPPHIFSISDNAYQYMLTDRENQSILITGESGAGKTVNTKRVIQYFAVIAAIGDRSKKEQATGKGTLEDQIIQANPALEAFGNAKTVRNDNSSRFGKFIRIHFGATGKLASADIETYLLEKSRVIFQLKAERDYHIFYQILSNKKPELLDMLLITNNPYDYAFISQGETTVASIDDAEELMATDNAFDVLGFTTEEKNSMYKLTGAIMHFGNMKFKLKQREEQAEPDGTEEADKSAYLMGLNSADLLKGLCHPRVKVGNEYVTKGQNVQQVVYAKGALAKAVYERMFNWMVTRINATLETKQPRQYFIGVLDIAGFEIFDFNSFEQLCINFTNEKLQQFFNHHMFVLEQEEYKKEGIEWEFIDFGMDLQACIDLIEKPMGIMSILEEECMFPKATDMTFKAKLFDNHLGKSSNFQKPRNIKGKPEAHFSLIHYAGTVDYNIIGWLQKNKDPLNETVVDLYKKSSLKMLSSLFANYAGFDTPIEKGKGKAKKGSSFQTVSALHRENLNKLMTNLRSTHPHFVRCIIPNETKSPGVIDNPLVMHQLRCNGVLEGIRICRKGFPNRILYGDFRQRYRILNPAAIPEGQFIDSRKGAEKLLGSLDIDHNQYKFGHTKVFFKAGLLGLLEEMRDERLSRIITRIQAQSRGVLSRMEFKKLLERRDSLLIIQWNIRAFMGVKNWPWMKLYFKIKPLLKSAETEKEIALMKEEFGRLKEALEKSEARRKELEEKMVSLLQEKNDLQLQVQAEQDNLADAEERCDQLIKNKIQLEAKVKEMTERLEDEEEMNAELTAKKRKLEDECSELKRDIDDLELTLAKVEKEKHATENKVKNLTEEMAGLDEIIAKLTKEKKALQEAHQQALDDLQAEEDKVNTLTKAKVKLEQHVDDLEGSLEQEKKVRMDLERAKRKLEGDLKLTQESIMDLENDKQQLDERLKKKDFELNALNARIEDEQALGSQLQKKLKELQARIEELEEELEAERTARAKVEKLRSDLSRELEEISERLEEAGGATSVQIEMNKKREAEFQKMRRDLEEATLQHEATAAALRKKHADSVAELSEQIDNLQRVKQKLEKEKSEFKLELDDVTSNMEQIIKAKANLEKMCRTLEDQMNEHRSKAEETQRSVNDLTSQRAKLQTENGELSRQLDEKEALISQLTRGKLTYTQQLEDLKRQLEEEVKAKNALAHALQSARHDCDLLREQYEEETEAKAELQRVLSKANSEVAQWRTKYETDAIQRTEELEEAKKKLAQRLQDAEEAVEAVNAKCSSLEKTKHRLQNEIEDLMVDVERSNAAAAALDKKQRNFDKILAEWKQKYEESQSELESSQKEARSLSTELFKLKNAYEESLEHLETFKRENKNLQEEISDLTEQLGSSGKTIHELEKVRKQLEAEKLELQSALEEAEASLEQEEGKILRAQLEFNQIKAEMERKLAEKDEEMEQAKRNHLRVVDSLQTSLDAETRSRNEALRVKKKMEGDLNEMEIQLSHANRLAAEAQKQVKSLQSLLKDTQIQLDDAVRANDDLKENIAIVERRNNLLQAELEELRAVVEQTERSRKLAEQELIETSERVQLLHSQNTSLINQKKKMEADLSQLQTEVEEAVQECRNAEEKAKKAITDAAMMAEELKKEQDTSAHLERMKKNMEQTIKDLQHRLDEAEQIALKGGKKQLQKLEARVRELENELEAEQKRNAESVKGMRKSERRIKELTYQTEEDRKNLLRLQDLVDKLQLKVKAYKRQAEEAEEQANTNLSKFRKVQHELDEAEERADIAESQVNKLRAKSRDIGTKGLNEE
T1 sequence (P85100 whole entry partner): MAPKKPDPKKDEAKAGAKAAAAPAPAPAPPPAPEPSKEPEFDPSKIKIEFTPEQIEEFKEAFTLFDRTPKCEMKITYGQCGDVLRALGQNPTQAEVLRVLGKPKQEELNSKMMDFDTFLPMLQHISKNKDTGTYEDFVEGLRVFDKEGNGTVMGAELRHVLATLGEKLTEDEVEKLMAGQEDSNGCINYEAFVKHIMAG
T1 sequence (Q3SZE5 whole entry partner): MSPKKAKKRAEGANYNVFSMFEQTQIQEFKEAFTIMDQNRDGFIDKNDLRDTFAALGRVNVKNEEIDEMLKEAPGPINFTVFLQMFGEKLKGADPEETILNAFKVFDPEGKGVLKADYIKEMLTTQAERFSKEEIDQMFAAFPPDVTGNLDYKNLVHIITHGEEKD

CCc1nc(-c2ccc3c(c2)CC[C@H]3NC(=O)c2cnn(C)c2)no1 [(R)-N-(5-(5-ethyl-1,2,4-oxadiazol-3-yl)-2,3-dihydro-1H-inden-1-yl)-1-methyl-1H-pyrazole-4-carboxamide]
CDMF75 IC15 [1]: 400 nM | IC10, plasma concentration for fractional shortening [2]: 800 nM
